This is an account of results in patent US11976072B2, “Diacylglycerol kinase modulating compounds” (priority 2021, dated 2024).

The subject of experiment [1] is Jurkat NFκB-luciferase cells. In words: Jurkat NFκB-Luciferase Assay. In kind it is cell-based. The following applies: Homo sapiens; Jurkat NFκB-luciferase cells activated with anti-CD3 antibody (OKT3), 2.5 hrs at 37° C.; geometric mean; read-out: DGK NFKb Luciferase EC50. The method, then: The day after, the excess antibody was washed out five times with 100 ul/well of assay medium (RPMI supplemented with 10% fetal bovine serum) using a Biotek EL406 instrument and leaving 20 ul of residual volume in each well. Jurkat NFκB-luciferase cells (Promega #) were harvested and diluted to 1 million cells/ml in assay medium. […] Thirty microliters of medium containing the Jurkat NFκB-luciferase cells were then dispensed using a Biotek MicroFlo instrument in each well of the compound-containing plate. […] Forty microliters of One-Glo Ex (Promega) was then added to the assay mixture and luciferase activity was read on a Envision plate reader 7 minutes later.

For a further experiment, the target named is human DGKα (Homo sapiens, UniProt P23743). The experiment is described as follows: DGKα Biochemical Activity Assay (ADP-Glo).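 Also: luminescent detection of ADP produced as DGKα phosphorylates DAG to phosphatidic acid, IC50 from four-parameter nonlinear curve fit.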 Conditions: recombinant DGKα 1 nM, 100 μM ATP, 18:1 DAG/POPS/octylglucoside micelles, 1 hour at 25° C.; geometric mean; read-out: HTBS DGKa 1X ATP KM IC50. For orientation: ADP-Glo first removes unused ATP, then detects ADP through luciferase.
Sequence of human DGKα (P23743 whole entry): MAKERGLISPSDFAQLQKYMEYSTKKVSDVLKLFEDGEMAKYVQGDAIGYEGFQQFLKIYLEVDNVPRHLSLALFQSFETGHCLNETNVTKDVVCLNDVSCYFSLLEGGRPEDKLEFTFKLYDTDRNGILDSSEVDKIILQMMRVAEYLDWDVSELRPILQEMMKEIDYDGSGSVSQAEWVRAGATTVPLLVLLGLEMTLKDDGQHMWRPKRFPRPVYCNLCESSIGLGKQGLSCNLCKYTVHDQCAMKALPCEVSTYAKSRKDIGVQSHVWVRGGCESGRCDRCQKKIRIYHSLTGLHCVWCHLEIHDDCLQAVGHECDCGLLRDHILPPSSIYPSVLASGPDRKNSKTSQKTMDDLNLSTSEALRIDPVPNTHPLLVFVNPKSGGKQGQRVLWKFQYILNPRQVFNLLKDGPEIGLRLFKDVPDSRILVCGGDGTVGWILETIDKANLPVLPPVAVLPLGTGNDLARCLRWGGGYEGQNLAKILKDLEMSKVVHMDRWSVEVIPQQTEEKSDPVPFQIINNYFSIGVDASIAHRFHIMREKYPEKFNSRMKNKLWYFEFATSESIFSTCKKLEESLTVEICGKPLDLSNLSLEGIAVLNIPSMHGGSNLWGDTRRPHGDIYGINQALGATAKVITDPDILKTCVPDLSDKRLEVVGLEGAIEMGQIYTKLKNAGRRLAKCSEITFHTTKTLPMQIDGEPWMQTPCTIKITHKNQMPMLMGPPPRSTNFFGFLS

What is called EC50 is the midpoint of the concentration-response curve. The IC50 is the point on the concentration scale where inhibition reaches its midpoint.

Source text for human DGKα: Alternatively, the enzymatic activity of human DGKα was monitored in a biochemical assay in the presence or absence of compounds and using micelles containing 18:1 Diacylglycerol (DAG), 16:0-18:1 PS (POPS) and Octylglucoside as substrate. DGKα activity led to conversion of DAG and ATP to Phosphatidic Acid (PA) and ADP. Levels of ADP were monitored by bioluminescence using the ADP-Glo Kinase Assay (Promega) and were indicative of DGKα activity.
Recombinant DGKα (Carna Biosciences) in assay buffer (5 μL in 50 mM MOPS [3-(N-morpholino) propanesulfonic acid], pH 7.2; 0.0025% Triton X-100; 1 mM dithiothreitol; 5 mM MgCl2, 200 μM ATP) was added to the compound-containing plate and was incubated for 15 minutes at 25° C. […] The reaction mixture was incubated at 25° C. for 1 hour. ADP-Glo Reagent (10 μL, 10 mM Mg added) provided by the kit was added to each well and incubated at 25° C. for 40 minutes. Then, 20 μL of Kinase Detection Reagent was added and incubated at 25° C. for 40 minutes. Luciferase activity of each well was measured via luminescence on an Envision plate reader (PerkinElmer).
Least squares curve fittings were performed using a four-parameter variable slope nonlinear regression model. […] IC50 values from multiple experiments were averaged by geometric mean and the standard deviation was calculated.

`CC(C)(C)C#Cc1cc(N(CC(F)F)c2nc3nncn3c3ccc(F)cc23)ccn1` [Example 101, N-(2,2-difluoroethyl)-N-(2-(3,3-dimethylbut-1-yn-1-yl)pyridin-4-yl)-7-fluoro-[1,2,4]triazolo[4,3-a]quinazolin-5-amine]: the EC50 in experiment [1] was 4.69 nM. For the same molecule, the IC50 on human DGKα was 5.56 nM.

As for `Cc1nnc2nc(N(CC(F)F)c3ccnc(C#CC4CC4)c3)c3c(F)cccc3n12` [Example 82, N-(2-(cyclopropylethynyl)pyridin-4-yl)-N-(2,2-difluoroethyl)-6-fluoro-1-methyl-[1,2,4]triazolo[4,3-a]quinazolin-5-amine], the EC50 in experiment [1] amounted to 10.5 nM. Moreover, the IC50 on human DGKα is 11.4 nM.

For `Fc1ccc2c(c1)c(N(CC(F)F)c1ccnc(C#CC3(C(F)(F)F)CC3)c1)nc1nncn12` [Example 103, N-(2,2-difluoroethyl)-7-fluoro-N-(2-((1-(trifluoromethyl)cyclopropyl)ethynyl)pyridin-4-yl)-[1,2,4]triazolo[4,3-a]quinazolin-5-amine], the EC50 in experiment [1] came out at 2.27 nM. The IC50 at human DGKα was found to be 5.13 nM.

With `Cc1nnc2nc(N3CCCc4c(C#CC(C)(C)NC(=O)OC(C)C(F)(F)F)cccc43)c3c(F)cccc3n12` (stereo not drawn) [Example 149, 1,1,1-trifluoropropan-2-yl (4-(1-(6-fluoro-1-methyl-[1,2,4]triazolo[4,3-a]quinazolin-5-yl)-1,2,3,4-tetrahydroquinolin-5-yl)-2-methylbut-3-yn-2-yl)carbamate], the EC50 in experiment [1] worked out at 5.38 nM. Further, the IC50 at human DGKα turned out to be 14.1 nM.

Consider `Cc1nnc2nc(N3CCCc4c(C#CC5CCCCO5)cccc43)c3c(F)cccc3n12` (stereo not drawn) [Example 129, 6-fluoro-1-methyl-5-(5-((tetrahydro-2H-pyran-2-yl)ethynyl)-3,4-dihydroquinolin-1(2H)-yl)-[1,2,4]triazolo[4,3-a]quinazoline], for which the EC50 in experiment [1] is 1.22 nM. Also, the IC50 at human DGKα stood at 7.55 nM.

Take `Cc1nnc2nc(N3CCN(C)Cc4c(C#CC5(C)CC5)cccc43)c3c(F)cccc3n12` [Example 165, 6-fluoro-1-methyl-5-[4-methyl-6-[2-(1-methylcyclopropyl)ethynyl]-3,5-dihydro-2H-1,4-benzodiazepin-1-yl]-[1,2,4]triazolo[4,3-a]quinazoline]: the EC50 in experiment [1] amounted to 5.35 nM. The IC50 at human DGKα worked out at 7.6 nM.

Regarding `CC(C)(C#Cc1cccc2c1OCCCN2c1nc2nncn2c2cccc(F)c12)C(F)(F)F` [Example 123], in experiment [1], the EC50 was found to be 0.533 nM. Moreover, the IC50 at human DGKα amounted to 31.5 nM.

For `Cc1nnc2nc(N(CC(F)F)c3cc(F)cc(C#CC4CCOCC4)c3)c3c(F)cccc3n12` [Example 20, N-(2,2-difluoroethyl)-6-fluoro-N-(3-fluoro-5-((tetrahydro-2H-pyran-4-yl)ethynyl)phenyl)-1-methyl-[1,2,4]triazolo[4,3-a]quinazolin-5-amine], the EC50 in experiment [1] worked out at 10.3 nM. For the same molecule, the IC50 at human DGKα worked out at 30.1 nM.

In the case of `Cc1nnc2nc(N(CC(F)F)c3cccc(C#CC4(C(F)F)CC4)c3F)c3c(F)cccc3n12` [Example 51, N-(2,2-difluoroethyl)-N-[3-[2-[1-(difluoromethyl)cyclopropyl]ethynyl]-2-fluoro-phenyl]-6-fluoro-1-methyl-[1,2,4]triazolo[4,3-a]quinazolin-5-amine], the EC50 in experiment [1] was 1.92 nM. Further, the IC50 at human DGKα was found to be 5.01 nM.

`Cc1nnc2nc(N3CCCOc4c(C#CC5CC5)cncc43)c3c(F)c(F)ccc3n12` [Example 167, 9-(2-cyclopropylethynyl)-5-(6,7-difluoro-1-methyl-[1,2,4]triazolo[4,3-a]quinazolin-5-yl)-3,4-dihydro-2H-pyrido[4,3-b][1,4]oxazepine]: in experiment [1], the EC50 worked out at 5.84 nM. Also, the IC50 at human DGKα worked out at 18 nM.

With `Cc1nnc2nc(N3CCOCc4c(C#CC(C)(C)NC(=O)C5(C(C)(F)F)CC5)cccc43)c3c(F)cccc3n12` [Example 181, 1-(1,1-Difluoroethyl)-N-[3-[1-(6-fluoro-1-methyl-[1,2,4]triazolo[4,3-a]quinazolin-5-yl)-3,5-dihydro-2H-4,1-benzoxazepin-6-yl]-1,1-dimethyl-prop-2-ynyl]cyclopropanecarboxamide], the EC50 in experiment [1] turned out to be 12.4 nM. Moreover, on human DGKα, the IC50 amounted to 4.06 nM.

On to `Cc1nnc2nc(N3CCCc4c(C#CC(C)(C)C#N)cccc43)c3c(Cl)c(F)ccc3n12` [Example 36, 4-[1-(6-chloro-7-fluoro-1-methyl-[1,2,4]triazolo[4,3-a]quinazolin-5-yl)-3,4-dihydro-2H-quinolin-5-yl]-2,2-dimethyl-but-3-ynenitrile], for which the EC50 in experiment [1] stood at 1.85 nM. Besides, at human DGKα, the IC50 worked out at 9.93 nM.

Consider `Cc1nnc2nc(N3CCCc4c(C#CC5(C(C)(F)F)CC5)cncc43)c3c(F)c(F)ccc3n12` [Example 12, 5-(5-((1-(1,1-difluoroethyl)cyclopropyl)ethynyl)-3,4-dihydro-1,7-naphthyridin-1(2H)-yl)-6,7-difluoro-1-methyl-[1,2,4]triazolo[4,3-a]quinazoline], for which the EC50 in experiment [1] was found to be 1.85 nM. Besides, the IC50 on human DGKα worked out at 37.3 nM.

For the molecule `Cc1nnc2nc(N3CCOCc4c(C#Cc5cnn(C)c5)cccc43)c3c(F)cccc3n12` [Example 218, 1-(6-fluoro-1-methyl-[1,2,4]triazolo[4,3-a]quinazolin-5-yl)-6-((1-methyl-1H-pyrazol-4-yl)ethynyl)-1,2,3,5-tetrahydrobenzo[e][1,4]oxazepine], the EC50 in experiment [1] is 33.9 nM. Moreover, on human DGKα, the IC50 was 14.5 nM.

With `CC(C)(O)C#Cc1cccc2c1COCCN2c1nc2nncn2c2c(F)ccc(F)c12` [Example 111], the EC50 in experiment [1] came to 45.8 nM. At human DGKα, the IC50 was determined as 6.5 nM.

In the case of `Cc1nnc2nc(N3CCCCc4c(C#CC(C)(C)C#N)cncc43)c3c(F)c(F)ccc3n12` [Example 2, 4-(1-(6,7-difluoro-1-methyl-[1,2,4]triazolo[4,3-a]quinazolin-5-yl)-2,3,4,5-tetrahydro-1H-pyrido[3,4-b]azepin-6-yl)-2,2-dimethylbut-3-ynenitrile], the EC50 in experiment [1] is 3.13 nM. For the same molecule, the IC50 at human DGKα is 14.8 nM.

Turning to `Fc1ccc2c(c(N(CC(F)F)c3ccnc(C#CC4(C(F)(F)F)CC4)c3)nc3nncn32)c1F` [Example 95, N-(2,2-difluoroethyl)-6,7-difluoro-N-(2-((1-(trifluoromethyl)cyclopropyl)ethynyl)pyridin-4-yl)-[1,2,4]triazolo[4,3-a]quinazolin-5-amine], the EC50 in experiment [1] was 2.77 nM. In addition, the IC50 on human DGKα is 7.69 nM.

As to `Cc1nnc2nc(N3CCCCc4c(C#CC5CC5)cncc43)c3c(F)c(F)ccc3n12` [Example 1, 5-(6-(cyclopropylethynyl)-2,3,4,5-tetrahydro-1H-pyrido[3,4-b]azepin-1-yl)-6,7-difluoro-1-methyl-[1,2,4]triazolo[4,3-a]quinazoline], the EC50 in experiment [1] turned out to be 0.897 nM. Further, at human DGKα, the IC50 came out at 15.1 nM.

On to `Cc1nnc2nc(N3CCOCc4c(C#CC5CC5)cccc43)c3cc(C#N)ccc3n12` [Example 108], for which the EC50 in experiment [1] was determined as 2.84 nM. On human DGKα, the IC50 turned out to be 4.69 nM.

Turning to `Cc1nnc2nc(N(CC(F)F)c3cccc(C#CC4(C)CC4)c3F)c3c(F)cccc3n12` [Example 52, N-(2,2-difluoroethyl)-6-fluoro-N-[2-fluoro-3-[2-(1-methylcyclopropyl)ethynyl]phenyl]-1-methyl-[1,2,4]triazolo[4,3-a]quinazolin-5-amine], the EC50 in experiment [1] was 0.583 nM. On human DGKα, the IC50 was 7.98 nM.

As to `Cc1nnc2nc(N3CCCCc4c(C#CC5(C)CC5)cncc43)c3c(F)c(F)ccc3n12` [Example 7, 6,7-difluoro-1-methyl-5-(6-((1-methylcyclopropyl)ethynyl)-2,3,4,5-tetrahydro-1H-pyrido[3,4-b]azepin-1-yl)-[1,2,4]triazolo[4,3-a]quinazoline], the EC50 in experiment [1] is 0.747 nM. Also, the IC50 at human DGKα was 23.1 nM.

In the case of `Cc1nnc2nc(N3CCOCc4c(C#CC5(C)CC5)cccc43)c3cc(C#N)ccc3n12` [Example 109], the EC50 in experiment [1] amounted to 1.67 nM. On human DGKα, the IC50 was found to be 7.3 nM.

As to `Fc1cccc2c1c(N1CCCc3c(C#CC4(C(F)F)CC4)cncc31)nc1nncn12` [Example 19, 5-(5-((1-(difluoromethyl)cyclopropyl)ethynyl)-3,4-dihydro-1,7-naphthyridin-1(2H)-yl)-6-fluoro-[1,2,4]triazolo[4,3-a]quinazoline], the EC50 in experiment [1] amounted to 1.53 nM. Further, the IC50 at human DGKα amounted to 21.3 nM.

Regarding `Cc1nnc2nc(N(CC(F)F)c3ccnc(C#CC4CC4)c3)c3c(F)c(F)ccc3n12` [Example 81, N-(2-(cyclopropylethynyl)pyridin-4-yl)-N-(2,2-difluoroethyl)-6,7-difluoro-1-methyl-[1,2,4]triazolo[4,3-a]quinazolin-5-amine], the EC50 in experiment [1] was 30.7 nM. Moreover, the IC50 at human DGKα amounted to 10.4 nM.

As for `COc1cncc(C#Cc2cccc3c2CCCN3c2nc3nnc(C)n3c3ccc(F)cc23)c1` [Example 219], in experiment [1], the EC50 was 1.3 nM. Moreover, at human DGKα, the IC50 came to 11.2 nM.

In the case of `Cc1nnc2nc(N3CCCc4c(N5CCC(F)(F)CC5)cccc43)c3c(F)cccc3n12` [Example 157, 5-[5-(4,4-difluoro-1-piperidyl)-3,4-dihydro-2H-quinolin-1-yl]-6-fluoro-1-methyl-[1,2,4]triazolo[4,3-a]quinazoline], the concentration giving a half-maximal response (EC50) in experiment [1] came out at 8.23 nM. For the same molecule, on human DGKα, the IC50 is 672 nM.

For `Cc1nnc2nc(N3CCOCc4c(C#CC5(NC(=O)C6(C(F)(F)F)CC6)CC5)cccc43)c3c(F)cccc3n12` [Example 145, N-(1-((1-(6-fluoro-1-methyl-[1,2,4]triazolo[4,3-a]quinazolin-5-yl)-1,2,3,5-tetrahydrobenzo[e][1,4]oxazepin-6-yl)ethynyl)cyclopropyl)-1-(trifluoromethyl) cyclopropane-1-carboxamide], the EC50 in experiment [1] was 1.21 nM. Further, the IC50 on human DGKα amounted to 6.87 nM.
